The subject of test [1] is C. difficile ATCC 43599 vegetative cells. In words: MIC test with asymmetrical compounds on C. difficile vegetative cells. The test is classed as cell-based, Clostridium difficile. Conditions: Clostridioides difficile. On the procedure:
(§1) Growth inhibition experiments were performed according to the following protocol: […] Microtiter plate wells were filled with 495 microliter of this suspension to which 5 microliter of selected compounds dissolved in DMSO was added (final concentration of each compound was 10 microgram per ml). This was all performed in an anaerobic cabinet. After filling the microtiter plate was sealed and incubated for 22 hours at 37° C. Inhibiting compounds were selected by visually determining growth inhibition. According to the same protocol as in Example 3 asymmetrical compounds were tested on their inhibitory effect of C. difficile, but also on other bacterial species, such as S. aureus and B. cereus. In the below tables the compounds and the MIC values that have been found for the various micro-organisms are listed. In the tests described in Table 4 and 5 the medium indicated as 'flora' is the SIEM medium described in […], Schols H A, Nauta A, Schoterman […]. High-throughput analysis of the impact of antibiotics on the human intestinal microbiota composition.

Test [2] has as its system C. difficile ATCC 43599 spores. Put plainly: MIC test with asymmetrical compounds on C. difficile spores. The test is classed as cell-based, Clostridium difficile. Conditions: Clostridioides difficile. The procedure:
as §1

Test [3] deals with Staphylococcus aureus ATCC 6538. Put plainly: MIC test with asymmetrical compounds on S. aureus. The test is classed as cell-based. On the procedure: as §1
In test [4] the test system is Bacillus cereus ATCC 11778. In words: MIC test with asymmetrical compounds on B. cereus. It counts as cell-based. On the procedure: as §1
The mark [5] stands for this setting: ATCC43599, 22 h, Table 4, SAB model medium, tested concentrations 1.2 μg/ml-0.03 μg/ml if not indicated otherwise, read-out: MIC veg. cells SAB model medium.
[6] abbreviates: ATCC43599, Table 3, vegetative cells, tested concentrations 10 μg/ml-0.003 μg/ml if not indicated otherwise, read-out: MIC Veg. cells.
[7] abbreviates: ATCC43599, Table 4, flora (SIEM) medium, tested concentrations 1.2 μg/ml-0.03 μg/ml if not indicated otherwise, read-out: MIC veg. cells flora.
[8] abbreviates: ATCC43599, 22 h, Table 4, SAB model medium, tested concentrations 1.2 μg/ml-0.03 μg/ml if not indicated otherwise, read-out: MIC spores SAB model medium.
Setting [9] is: ATCC43599, Table 3, spores, tested concentrations 10 μg/ml-0.003 μg/ml if not indicated otherwise, read-out: MIC spores.
Where [10] appears, read: ATCC43599, Table 4, flora (SIEM) medium, tested concentrations 1.2 μg/ml-0.03 μg/ml if not indicated otherwise, read-out: MIC spores flora.
Setting [11] is: ATCC6538, Table 5, read-out: MIC S. aureus ATCC 6538.
Where [12] appears, read: ATCC11778, Table 5, read-out: MIC B. cereus ATCC 11778.

In brackets after ≈: the same amount, converted by molar mass. Where two headings read alike, the source gives them in different places.

By MIC is commonly meant the lowest concentration found to suppress growth.

As for `Cc1ccc(C)c(N2C(=O)c3ccc4c5c(ccc(c35)C2=O)C(=O)NC4=O)c1` [20141155PBmol23], the minimal inhibitory concentration (MIC) is 0.07 to 0.15 µg/mL (≈ 0.189 to 0.405 µM) in test [1] (setting [5]); 0.07 to 0.15 µg/mL (≈ 0.189 to 0.405 µM) in test [1] (setting [6]); 0.3 to 0.6 µg/mL (≈ 0.81 to 1.62 µM) in test [1] (setting [7]); 0.07 to 0.15 µg/mL (≈ 0.189 to 0.405 µM) in test [2] (setting [8]); 0.03 to 0.07 µg/mL (≈ 0.081 to 0.189 µM) in test [2] (setting [9]); above 1.2 µg/mL in test [2] (setting [10]). Further, the MIC is above 100 µg/mL in test [3] (setting [11]) and 100 µg/mL (≈ 270 µM) in test [4] (setting [12]).

With `O=C1NC(=O)c2ccc3c4c(ccc1c24)C(=O)N(CC1CCCO1)C3=O` (centres unmarked) [20141155PBmol30], the MIC in test [1] (setting [5]) was in the range of 0.03 to 0.07 µg/mL (≈ 0.0856 to 0.2 µM); in test [1] (setting [6]) it was 0.03 to 0.07 µg/mL (≈ 0.0856 to 0.2 µM); in test [1] (setting [7]), 0.3 to 0.6 µg/mL (≈ 0.856 to 1.71 µM); in test [2] (setting [8]), 0.03 to 0.07 µg/mL (≈ 0.0856 to 0.2 µM); in test [2] (setting [9]), 0.01 to 0.03 µg/mL (≈ 0.0285 to 0.0856 µM); in test [2] (setting [10]), 0.3 to 0.6 µg/mL (≈ 0.856 to 1.71 µM). Moreover, the MIC in test [3] (setting [11]) and in test [4] (setting [12]) was above 100 µg/mL throughout.

As to `O=C1NC(=O)c2ccc3c4c(ccc1c24)C(=O)N(c1ccc(O)cc1)C3=O` [20141155PBmol37], the minimum inhibitory concentration (MIC) in test [1] (setting [5]) lay within 0.07 to 0.15 µg/mL (≈ 0.195 to 0.419 µM); in test [1] (setting [6]), 0.07 to 0.15 µg/mL (≈ 0.195 to 0.419 µM); in test [1] (setting [7]) it was 0.6 to 1.2 µg/mL (≈ 1.67 to 3.35 µM); in test [2] (setting [8]), 0.07 to 0.15 µg/mL (≈ 0.195 to 0.419 µM); in test [2] (setting [9]), 0.03 to 0.07 µg/mL (≈ 0.0837 to 0.195 µM); in test [2] (setting [10]), 0.3 to 0.6 µg/mL (≈ 0.837 to 1.67 µM). In addition, the figures for the MIC in test [3] (setting [11]) and in test [4] (setting [12]) were 40 µg/mL (≈ 112 µM) and 4 µg/mL (≈ 11.2 µM), respectively.

Turning to `O=C1NC(=O)c2ccc3c4c(ccc1c24)C(=O)N(CCCCO)C3=O` [20141155PBmol41], the MIC fell in the range of 0.07 to 0.15 µg/mL (≈ 0.207 to 0.443 µM) in test [1] (setting [5]); 0.07 to 0.15 µg/mL (≈ 0.207 to 0.443 µM) in test [1] (setting [6]); 0.15 to 0.3 µg/mL (≈ 0.443 to 0.887 µM) in test [1] (setting [7]); 0.07 to 0.15 µg/mL (≈ 0.207 to 0.443 µM) in test [2] (setting [8]); 0.03 to 0.07 µg/mL (≈ 0.0887 to 0.207 µM) in test [2] (setting [9]); 0.15 to 0.3 µg/mL (≈ 0.443 to 0.887 µM) in test [2] (setting [10]). Further, the minimum inhibitory concentration (MIC) in test [3] (setting [11]) was above 100 µg/mL; in test [4] (setting [12]), 4 µg/mL (≈ 11.8 µM).

Take `COc1ccc(OC)c(N2C(=O)c3ccc4c5c(ccc(c35)C2=O)C(=O)NC4=O)c1` [20141155PBmol46]: the MIC lay within 0.07 to 0.15 µg/mL (≈ 0.174 to 0.373 µM) in test [1] (setting [5]); 0.07 to 0.15 µg/mL (≈ 0.174 to 0.373 µM) in test [1] (setting [6]); 0.6 to 1.2 µg/mL (≈ 1.49 to 2.98 µM) in test [1] (setting [7]); 0.07 to 0.15 µg/mL (≈ 0.174 to 0.373 µM) in test [2] (setting [8]); 0.03 to 0.07 µg/mL (≈ 0.0746 to 0.174 µM) in test [2] (setting [9]); 0.6 to 1.2 µg/mL (≈ 1.49 to 2.98 µM) in test [2] (setting [10]). For the same compound, the values for the minimum inhibitory concentration (MIC) in test [3] (setting [11]) and in test [4] (setting [12]) were 10 µg/mL (≈ 24.9 µM) and 4 µg/mL (≈ 9.94 µM), respectively.

As for `O=C1NC(=O)c2ccc3c4c(ccc1c24)C(=O)N(CCO)C3=O` [20141155PBmol57], the MIC in test [1] (setting [5]) was 0.3 to 0.6 µg/mL (≈ 0.967 to 1.93 µM); in test [1] (setting [6]), 0.15 to 0.3 µg/mL (≈ 0.483 to 0.967 µM); in test [1] (setting [7]), 0.07 to 0.15 µg/mL (≈ 0.226 to 0.483 µM); in test [2] (setting [8]) it was 0.3 to 0.6 µg/mL (≈ 0.967 to 1.93 µM); in test [2] (setting [9]), 0.15 to 0.3 µg/mL (≈ 0.483 to 0.967 µM); in test [2] (setting [10]), 0.6 to 1.2 µg/mL (≈ 1.93 to 3.87 µM). Further, the figures for the minimal inhibitory concentration (MIC) in test [3] (setting [11]) and in test [4] (setting [12]) were 40 µg/mL (≈ 129 µM) and 4 µg/mL (≈ 12.9 µM), respectively.

In the case of `O=C1c2ccc3c4c(ccc(c24)C(=O)N1CCO)C(=O)N(CCO)C3=O` [A0547/0025269], the minimal inhibitory concentration (MIC) in test [1] (setting [5]) was 0.6 to 1.2 µg/mL (≈ 1.69 to 3.39 µM); in test [1] (setting [6]), 0.3 to 0.6 µg/mL (≈ 0.847 to 1.69 µM); in test [1] (setting [7]), 0.3 to 0.6 µg/mL (≈ 0.847 to 1.69 µM); in test [2] (setting [8]), 0.3 to 0.6 µg/mL (≈ 0.847 to 1.69 µM); in test [2] (setting [9]), 0.3 to 0.6 µg/mL (≈ 0.847 to 1.69 µM); in test [2] (setting [10]) it was 0.6 to 1.2 µg/mL (≈ 1.69 to 3.39 µM).

Turning to `Cc1ncc([N+](=O)[O-])n1CCO` [Metronadizol, reference compound], the MIC in test [1] (setting [5]), in test [1] (setting [6]), in test [1] (setting [7]), in test [2] (setting [8]), in test [2] (setting [9]) and in test [2] (setting [10]) was below 0.3 µg/mL each time.

With `CN[C@H](CC(C)C)C(=O)N[C@H]1C(=O)N[C@@H](CC(N)=O)C(=O)N[C@H]2C(=O)N[C@H]3C(=O)N[C@H](C(=O)N[C@H](C(=O)O)c4cc(O)cc(O)c4-c4cc3ccc4O)[C@H](O)c3ccc(c(Cl)c3)Oc3cc2cc(c3O[C@@H]2O[C@H](CO)[C@@H](O)[C@H](O)[C@H]2O[C@H]2C[C@](C)(N)[C@H](O)[C@H](C)O2)Oc2ccc(cc2Cl)[C@H]1O` [Vancomycin, reference compound], the MIC is below 0.3 µg/mL in test [1] (ATCC43599, 22 h, read-out: MIC veg. cells SAB model medium); below 0.3 µg/mL in test [1] (ATCC43599, read-out: MIC Veg. cells); below 0.3 µg/mL in test [1] (ATCC43599, read-out: MIC veg. cells flora); below 0.3 µg/mL in test [2] (ATCC43599, 22 h, read-out: MIC spores SAB model medium); below 0.3 µg/mL in test [2] (ATCC43599, read-out: MIC spores); below 0.3 µg/mL in test [2] (ATCC43599, read-out: MIC spores flora). Moreover, the minimal inhibitory concentration (MIC) in test [3] (ATCC6538, read-out: MIC S. aureus ATCC 6538) was 1 µg/mL (≈ 0.69 µM); in test [4] (ATCC11778, read-out: MIC B. cereus ATCC 11778), 1 µg/mL (≈ 0.69 µM).

Source of the values: patent US10596164B2, “Anti-clostridium compounds” (Nederlandse Organisatie voor …, priority 2014, dated 2020).
